Several values for one entry are separate records, joined by “and”; a condition that tells them apart may be missing. Identical values can stand only once.
How the values were obtained:
[1] = target: T1, GluN1-4a/GluN2B NMDARs (Rattus norvegicus, UniProt Q00960); experiment: TEVC electrophysiology on Xenopus laevis oocytes expressing GluN1-4a/GluN2B; format: cell-based; settings: for fold difference of Ki vs. 2D (GluN2B): Ki GluN2B relative to Ki GluN2D (WT)
T1 construct: expressed in transfected cells; host or cells: Xenopus laevis oocytes injected with cRNA
Description: (§1) The chemical definition of UBP791 used in this study is a cis-racemic mixture of (2S,3R)- and (2R,3S)-isomers.
(§2) Plasmids (pSP or pCI_NEO) harboring rat GluN1 or GluN2 full-length subunits were linearized by restriction digestion and transcribed according to the manufacturer’s instructions (mMESSAGE mMachine SP6 or T7 kit, ThermoFisher Scientific). Recombinant rat GluN1-4a and GluN2 were expressed by co-injecting cRNA at a 1:2 (w/w) ratio into defolliculated X. laevis oocytes (amounts varied from 0.05–25 ng per oocyte). Two-electrode voltage-clamp recordings were performed 1–3 days after injection using agarose-tipped microelectrodes (0.4–1.2 MΩ) filled with 3 M KCl at a holding potential of −60 mV. The bath solution contained 5 mM HEPES, 100 mM NaCl, 0.3 mM BaCl2, 10 mM Tricine, at pH 7.4 (adjusted with KOH). […] For the statistical evaluation, we implemented pairwise F-tests to test variances, and then performed the Student t test with equal or unequal variances as determined previously, and accounted for multiple testing with the Bonferroni correction.

[2] = target: T2, GluN1-4a/GluN2B NMDARs (Rattus norvegicus, UniProt P35439+Q00960); experiment: as above; format: cell-based
T2 construct: expressed in transfected cells; host or cells: Xenopus laevis oocytes injected with cRNA
Description: as §1, §2

[3] = target: human GluK1 (Homo sapiens, UniProt P39086); experiment: Glutamate-stimulated Ca2+-influx fluorescence assay in HEK293 cells, GluK1; format: cell-based
Method: Supplementary Figure 5. Effect of antagonist compounds on GluK1.
Averaged dose-response curves (average ± standard error of the mean) for inhibition with a […]
glutamate-stimulated Ca2+-influx assay from 3 or 4 measurements (n). IC50, Ki, and Hill coefficient nH (mean ± standard error of the mean) calculated with the Cheng-Prusoff equation were determined per measurement and are as shown. […]
HEK293 cell lines stably expressing homomeric glutamate receptors (GluA1, GluK1 and GluK2) were obtained from Eli Lilly and grown in DMEM (ThermoFisher) supplemented with 10% v/v fetal bovine serum (Sigma), 2 mM Glutamax™ (Gibco), 100 U/mL penicillin, 100 µg streptomycin and 250 ng amphotericin B (Sigma) in 5% CO2 at 37 °C. […]
(§3) Calcium influx fluorescence assay
100k cells/well were seeded into a 96-well plate precoated with poly-L-lysine and incubated for 12-16 hours until fully confluent. […] The time resolved fluorescence was recorded in a Flexstation 3 instrument (Molecular Devices). For each individual reading, the initial fluorescence of the well was measured for 20 seconds, after which the desired concentration of […]
response is measured as the peak change in fluorescence upon addition of agonist. […] Readings of antagonists used the […]
(§4) Fluorescence traces were performed in […]
triplicate on each plate and Ki values were determined on a plate-by-plate basis. […]

[4] = target: GluA1 (Homo sapiens, UniProt P42261); experiment: Glutamate-stimulated Ca2+-influx fluorescence assay in HEK293 cells, GluA1; format: cell-based; settings: for IC50: HEK293 cells, glutamate-stimulated Ca2+-influx
Method: HEK293 cell lines stably expressing homomeric glutamate receptors (GluA1, GluK1 and GluK2) were obtained from Eli Lilly and grown in DMEM (ThermoFisher) supplemented with 10% v/v fetal bovine serum (Sigma), 2 mM Glutamax™ (Gibco), 100 U/mL penicillin, 100 µg streptomycin and 250 ng amphotericin B (Sigma) in 5% CO2 at 37 °C. Cells were passaged using TrypLE (Gibco) as required before confluency and periodically treated with selection antibiotics (GluK1, GluK2 hygromycin B, 200 µg/mL; GluA1 geneticin™, 200 µg/mL).
as §3
100k cells/well were seeded into a 96-well plate precoated with poly-L-lysine and incubated for 12-16 hours until fully confluent. The cell monolayer was washed twice with 100 µL Hanks Balanced Salt Solution supplemented with 5 mM CaCl2 and 20 mM HEPES (sHBSS), then incubated for 2-4 hours with 100 µL working solution of Ca6 dye (Molecular Devices) supplemented with a desensitization blocker (GluK1, GluK2 0.25 mg/mL concanavalin A, Sigma; GluA1 100 µM cyclothiazide, Sigma). The time resolved fluorescence was recorded in a Flexstation 3 instrument (Molecular Devices). For each individual reading, the initial fluorescence of the well was measured for 20 seconds, after which the desired concentration of […]
response is measured as the peak change in fluorescence upon addition of agonist. The viability of the cells was confirmed by determination of the concentration-response curve to the L-glutamate agonist and a standard antagonist for each plate. Readings of antagonists used the […]
as §4
triplicate on each plate and Ki values were determined on a plate-by-plate basis. Separate experiments (n) were performed on different passages of cells. […]

[5] = Water solubility (statement); format: physicochemical; settings: authors' statement in peer review file
[6] = normalized response at 30 µM compound
[7] = normalized response at 100 µM compound

Sequence of GluA1 (P42261 19-906): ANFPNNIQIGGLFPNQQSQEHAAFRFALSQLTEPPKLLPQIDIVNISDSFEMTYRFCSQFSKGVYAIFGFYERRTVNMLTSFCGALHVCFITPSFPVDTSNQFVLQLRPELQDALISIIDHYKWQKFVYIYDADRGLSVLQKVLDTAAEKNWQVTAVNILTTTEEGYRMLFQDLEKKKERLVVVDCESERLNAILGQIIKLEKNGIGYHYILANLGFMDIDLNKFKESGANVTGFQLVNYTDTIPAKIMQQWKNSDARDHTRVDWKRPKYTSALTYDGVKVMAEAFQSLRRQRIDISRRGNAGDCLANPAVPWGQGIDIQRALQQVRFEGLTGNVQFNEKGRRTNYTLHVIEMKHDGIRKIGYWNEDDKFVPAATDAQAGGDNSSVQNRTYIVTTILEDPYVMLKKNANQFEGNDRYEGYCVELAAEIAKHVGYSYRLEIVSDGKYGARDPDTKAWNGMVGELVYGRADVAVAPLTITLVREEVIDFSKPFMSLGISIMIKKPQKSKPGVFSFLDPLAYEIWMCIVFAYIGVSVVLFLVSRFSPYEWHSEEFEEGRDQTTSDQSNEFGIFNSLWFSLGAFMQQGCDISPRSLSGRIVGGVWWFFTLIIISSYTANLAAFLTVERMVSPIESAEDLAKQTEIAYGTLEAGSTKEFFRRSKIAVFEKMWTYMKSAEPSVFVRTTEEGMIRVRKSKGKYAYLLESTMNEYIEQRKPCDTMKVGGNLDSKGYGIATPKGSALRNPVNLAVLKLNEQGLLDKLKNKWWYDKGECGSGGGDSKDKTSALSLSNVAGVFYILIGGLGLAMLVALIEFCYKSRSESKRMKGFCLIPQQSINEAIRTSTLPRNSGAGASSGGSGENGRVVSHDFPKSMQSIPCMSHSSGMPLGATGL
T1 sequence (Q00960 27-1482, other chains not shown): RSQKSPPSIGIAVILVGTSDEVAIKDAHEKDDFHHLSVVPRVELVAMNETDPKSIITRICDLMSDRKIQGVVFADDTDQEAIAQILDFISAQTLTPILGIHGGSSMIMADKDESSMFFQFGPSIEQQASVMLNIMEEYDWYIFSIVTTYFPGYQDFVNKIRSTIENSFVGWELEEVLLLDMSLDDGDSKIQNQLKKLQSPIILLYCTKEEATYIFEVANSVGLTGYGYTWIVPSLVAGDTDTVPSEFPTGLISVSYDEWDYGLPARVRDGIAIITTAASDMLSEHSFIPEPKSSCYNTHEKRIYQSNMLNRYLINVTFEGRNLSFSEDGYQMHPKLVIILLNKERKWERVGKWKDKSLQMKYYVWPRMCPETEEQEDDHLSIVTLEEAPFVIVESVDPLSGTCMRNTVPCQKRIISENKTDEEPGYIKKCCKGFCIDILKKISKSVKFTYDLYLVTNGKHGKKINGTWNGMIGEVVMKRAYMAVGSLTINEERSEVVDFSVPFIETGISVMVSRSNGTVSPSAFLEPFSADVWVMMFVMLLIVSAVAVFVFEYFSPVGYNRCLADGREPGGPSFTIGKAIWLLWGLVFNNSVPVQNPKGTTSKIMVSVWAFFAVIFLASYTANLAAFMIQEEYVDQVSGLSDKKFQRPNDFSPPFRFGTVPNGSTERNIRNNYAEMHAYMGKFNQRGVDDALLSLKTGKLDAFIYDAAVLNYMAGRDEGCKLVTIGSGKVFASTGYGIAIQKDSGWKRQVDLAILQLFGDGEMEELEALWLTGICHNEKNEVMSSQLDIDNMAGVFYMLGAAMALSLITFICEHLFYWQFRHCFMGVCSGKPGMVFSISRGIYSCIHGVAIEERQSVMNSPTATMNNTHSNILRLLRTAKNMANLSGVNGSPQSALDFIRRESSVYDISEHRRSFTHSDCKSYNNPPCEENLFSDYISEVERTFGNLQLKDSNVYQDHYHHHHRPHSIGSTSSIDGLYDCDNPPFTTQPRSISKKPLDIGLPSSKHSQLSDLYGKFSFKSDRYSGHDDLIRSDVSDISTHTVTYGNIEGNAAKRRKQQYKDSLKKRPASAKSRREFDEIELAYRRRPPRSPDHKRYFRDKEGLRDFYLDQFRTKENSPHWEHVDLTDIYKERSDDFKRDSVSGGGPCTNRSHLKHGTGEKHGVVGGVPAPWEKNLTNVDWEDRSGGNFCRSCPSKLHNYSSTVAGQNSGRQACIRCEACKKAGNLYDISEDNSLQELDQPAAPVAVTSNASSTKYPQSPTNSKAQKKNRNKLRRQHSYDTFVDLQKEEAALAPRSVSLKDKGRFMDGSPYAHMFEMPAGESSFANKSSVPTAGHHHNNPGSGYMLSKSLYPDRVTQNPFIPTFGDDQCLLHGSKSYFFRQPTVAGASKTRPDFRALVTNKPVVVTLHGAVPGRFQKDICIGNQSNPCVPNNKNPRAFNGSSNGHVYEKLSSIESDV
Sequence of human GluK1 (P39086 31-918): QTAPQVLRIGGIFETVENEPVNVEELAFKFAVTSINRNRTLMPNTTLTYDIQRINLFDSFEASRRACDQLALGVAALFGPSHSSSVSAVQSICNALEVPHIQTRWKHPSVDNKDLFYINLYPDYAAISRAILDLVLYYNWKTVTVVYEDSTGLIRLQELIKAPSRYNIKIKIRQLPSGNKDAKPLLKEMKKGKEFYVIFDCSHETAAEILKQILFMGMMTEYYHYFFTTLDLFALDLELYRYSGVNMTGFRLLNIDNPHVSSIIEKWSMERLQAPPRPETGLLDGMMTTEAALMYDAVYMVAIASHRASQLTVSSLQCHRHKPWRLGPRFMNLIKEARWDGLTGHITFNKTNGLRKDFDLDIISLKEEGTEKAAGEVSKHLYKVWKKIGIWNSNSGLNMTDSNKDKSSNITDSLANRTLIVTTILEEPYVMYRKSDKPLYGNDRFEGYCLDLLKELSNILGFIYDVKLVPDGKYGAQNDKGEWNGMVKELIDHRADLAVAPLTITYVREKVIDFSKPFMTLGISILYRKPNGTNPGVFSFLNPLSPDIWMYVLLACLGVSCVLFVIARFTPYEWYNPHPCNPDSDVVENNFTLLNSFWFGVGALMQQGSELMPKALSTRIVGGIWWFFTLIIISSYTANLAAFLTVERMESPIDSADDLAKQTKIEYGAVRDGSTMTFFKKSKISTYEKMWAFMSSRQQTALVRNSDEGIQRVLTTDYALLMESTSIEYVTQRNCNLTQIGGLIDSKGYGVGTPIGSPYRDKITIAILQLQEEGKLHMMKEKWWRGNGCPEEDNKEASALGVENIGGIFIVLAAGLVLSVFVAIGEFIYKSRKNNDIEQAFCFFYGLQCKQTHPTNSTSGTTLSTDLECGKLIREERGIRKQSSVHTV
T2 sequence (Q00960 27-1482, other chains not shown): as the sequence (Q00960 27-1482, other chains not shown) above

SMILES	fold difference of Ki vs. 2D (GluN2B) [1]	GluN2C/2D-selectivity over GluN2B ([1]; ratio of Ki values)	Ki [2]	Ki [3]	IC50 [4]	Mean Response [4, 6]	Mean Response [4, 7]	water solubility relative to PPDA [5]	selectivity for GluN2C over GluN2B ([1]; ratio of Ki values)
O=C(O)CCc1ccc2c(ccc3cc(C(=O)N4CCN[C@@H](C(=O)O)[C@H]4C(=O)O)ccc32)c1 (relative stereo) [UBP791, (2S*,3R*)-1-(7-(2-carboxyethyl)phenanthrene-2-carbonyl)piperazine-2,3-dicarboxylic acid]	~ 16 fold	16 fold	1.38 ± 0.36 µM	~100 µM	> 100 µM	94.1%	86.0%	more water soluble than PPDA	–
O=C(O)C=Cc1ccc2c(ccc3cc(C(=O)N4CCN[C@@H](C(=O)O)[C@H]4C(=O)O)ccc32)c1 (relative stereo) [UBP1700, (2S*,3R*)-1-(7-(2-carboxyvinyl)phenanthrene-2-carbonyl)piperazine-2,3-dicarboxylic acid]	~ 52 fold and 52 fold	–	0.35 ± 0.05 µM	~32 µM	> 100 µM	105.1%	101.8%	more water soluble than PPDA	40 fold

Source: article PMC6976569, “Structural basis of subtype-selective competitive antagonism for GluN2C/2D-containing NMDA receptors” (Nature Communications, 2020)
